Measurements taken from US8138343B2, “Crystalline polymorph of 7-ethyl-10-hydroxycamptothecin” (ScinoPharm Taiwan Ltd., priority 2007, dated 2012).

Experiment: Storage stability of crystalline SN38
Assay type: physicochemical
Conditions: 25° C. and 70% relative humidity for one year

stability on storage: stable
SMILES: CCc1c2c(nc3ccc(O)cc13)-c1cc3c(c(=O)n1C2)COC(=O)C3(O)CC (stereo not shown) [crystalline SN38, 7-ethyl-10-hydroxycamptothecin]
